{"source": "patent US20190030018A1", "about": "(Celgene Corporation, priority 2017, published 2019)", "key": {"physchem [1]": {"assay": "physchem", "type": "physicochemical", "conditions": "organic solvent or mixture, thermodynamic from solid, drug solubility in formic acid", "method": "A solvent screen was conducted to identify suitable Class 3 solvents listed in the ICH (International Conference on Harmonisation) Q3C Guidance as the Class 3 solvents have a higher permitted daily exposure (PDE) level of 50 mg/day. A good solvent candidate was considered to have 1) good miscibility with water and 2) sufficiently low boiling point so that it can be easily removed during the lyophilization process."}, "[2]": {"tested_on": "primary human tumor xenograft model GA0087", "assay": "HuPrime gastric cancer xenograft GA0087 model, in vivo efficacy", "parameters": "species or system female BALB/c nude mice", "conditions": "single agent", "description": "Tumor fragments from stock mice were harvested and used for inoculation into mice. Each mouse was inoculated subcutaneously at the right flank with primary human tumor xenograft model GA0087 tumor fragment (P7, 2-3 mm in diameter) for tumor development. […] After tumor inoculation, the animals were checked daily for morbidity and mortality. At the time of routine monitoring, the animals were checked for any effects of tumor growth and treatments on normal behavior such as mobility, food and water consumption, body weight gain/loss, eye/hair matting and any other abnormal effect. Death of euthanized mouse was recorded. All groups were terminated on Day 40. Three tumors in each group, with tumor volume near median of each group were collected. Plasma of the same mice were collected. For comparison among three or more groups, one-way ANOVA was performed followed by multiple comparison procedures. All data were analyzed using SPSS 18.0. P values <0.05 is considered to be statistically significant."}, "[3]": {"tested_on": "GSPT1 and mTORC1 effectors in BON cells", "assay": "Western blot of BON cell lysates after 120 h treatment", "type": "cell-based", "method": "BON cells were cultured in DMEM: F12K media containing 10% fetal bovine serum and penicillin/streptomycin antibiotics. […] Cells were harvested and probed with antibodies for western blots and imaged using a Li-Cor Odyssey imaging system. All total and phosphorylated antibodies were obtained from Cell Signaling Technology."}, "[4]": {"assay": "Solubility of Compound 1 in Kleptose solutions ('top-down' approach)", "type": "physicochemical", "conditions": "formic acid 1.65 mg/mL", "method": "The Kleptose concentration varied from 30 to 100 mg/mL."}, "[5]": {"assay": "GA0087 PDX model ex vivo 3D methylcellulose CellTiter-Glo cell viability assay (IC50, matrix combination, Combination Index)", "experimental": "(§2) Materials and Methods: The stomach cancer cell line GA0087 was used in this study. […] Culture media was purchased from GIBCO or Sigma, USA.\n(§3) Everolimus was obtained from Selleck. Cisplatin was used as a reference drug, and was obtained from Hospira Australia pty Ltd.\n(§4) PDX tumor models were maintained at Crownbio HuPrime animal facility. Tumor growth was monitored weekly. Tumor volumes were measured in two dimensions using a caliper, and the volume was expressed in mm^3 using the formula: V=0.5 a×b^2 where a and b are the long and short diameters of the tumor, respectively. • 2. Mouse xenografts at tumor volume around 800 mm^3 were housed with sterile surgical tools and tumor tissue was minced into tiny pieces with scissors in small amount of PBS on a new tissue culture plate. • 3. The cell suspension was filtered through Falcon cell strainer. The nylon mesh was washed 3-5 times with PBS. • 4. The cell suspension was centrifuged at 1000 rpm for 5 minutes and the pellet was washed with PBS and centrifuged again. • 5. Red blood cells were removed using red blood cell lysis buffer. • 6. The cell suspension was centrifuged at 1000 rpm for 5 minutes and the pellet was washed with PBS and centrifuged again. • 7. The cell pallet was re-suspended with appropriate cell culture media for different cells. • 8. Cells were counted with Countstar by trypan blue exclusion.\n(§5) Day −1: Cell Plating • 1. The cells were harvested during the logarithmic growth period. The harvested cells were cultured with appropriate cell media and centrifuged at 1000 rpm for 3 minutes. […] (Cell concentration was adjusted according to the data base or density optimization assay). • 3. 3.5 mL of cell suspension was mixed with 6.5 mL of 1% methylcellulose. […] 90 μL cell suspensions were added to 96-well plates according to plate map with final cell density. Two duplicate plates were set up: one for day 0 reading (T0) and the other was cultured in incubator for reading at the end point.\n(§6) Day 0: T0 Plate Reading and Compound Treatment • 5.10 μL culture medium was added to T0 plate in each well for T0 reading. • 6.100 μl CellTiter-Glo® Reagent was added to each well. • 7. The contents were mixed for 2 minutes on an orbital shaker to facilitate cell lysis. • 8. The plates were allowed to incubate at room temperature for 10 minutes to stabilize luminescent signal. • 9. A backseal black sticker was placed to the bottom of each plate. • 10. The luminescence was read using EnVision Multi Label Reader. • 11.\n(§7) The solutions were stored at −20° C. […] The response score was calculated by normalizing to DMSO control. The combination index (CI) was calculated using Chou and Talalay method, wherein a CI of less than 1 indicates synergy. Cisplatin was used as control in the single compound dose response, but was not included in the combination test.\n(§8) After drug incubation, pictures for representative wells were taken using a phase contrast microscope. • 13. 100 μL CellTiter-Glo® Reagent was added to each well. • 14. Contents were mixed for 2 minutes on an orbital shaker to facilitate cell lysis. • 15. The plates were allowed to incubate at room temperature for 10 minutes to stabilize luminescent signal. • 16. Backseal black sticker was placed to the bottom of each plate. • 17. Luminescence was recorded using EnVision Multi Label Reader.\n(§9) In order to calculate IC50, a dose-response curve was fitted using nonlinear regression model with a sigmoidal dose response. The formula of surviving rate is shown below, and the IC50 was automatically produced by GraphPad Prism 5.0.\n(§10) The surviving rate (%)=(LumTest article−LumMedium control)/(LumNone treated−LumMedium control)×100%."}, "[6]": {"tested_on": "stomach cancer cell line GA0087", "assay": "GA0087 PDX model ex vivo 3D methylcellulose CellTiter-Glo cell viability assay (IC50, matrix combination, Combination Index)", "experimental": "as §2, §3, §4, §5, §6, §7, §8, §9, §10"}, "[7]": {"tested_on": "caspase-3 activation and GSPT1 degradation in BMMCs from a MDS patient", "assay": "Apoptosis and GSPT1 degradation by flow cytometry 24 hours after exposure", "type": "cell-based, human", "conditions": "24 hours exposure"}, "physchem [8]": {"assay": "physchem", "conditions": "aqueous with cosolvent or surfactant or cyclodextrin", "experimental": "In the first precipitation study, four solution formulations were prepared at a Kleptose concentration of 100 mg/mL. […] Then the solutions were stored in three conditions: (1) at ambient condition with mild mixing; (2) at ambient condition without mixing; (3) at 2-8° C. without mixing.\nThe corresponding drug concentration of each formulation was 300, 400, and 500 μg/mL so that the supersaturation ratio was about 5× for all the three formulations. […] In the study, the same experiments were repeated twice to evaluate the reproducibility of the results."}, "[9]": {"tested_on": "GSPT1 expression, mTOR activation, Mcl-1 expression and Caspase-3 cleavage in AML cells", "assay": "Immunoblot analysis of AML cells treated with Compound 1 and everolimus", "type": "cell-based", "conditions": "AML cell lines HNT-34 and KG1, Compound 1 alone", "description": "Whole cell extracts were collected and subjected to immunoblot analysis."}, "[10]": {"tested_on": "IDH2 mutant cell line TF1-R140Q", "assay": "Proliferation (total, HSC and progenitor cell count) in the TF1 assay", "type": "cell-based", "method": "Cells were plated at a density of 0.2e^6 cells/ml of 2 ml culture in 6 well plates.\nTF1 cells were cultured in the following media: RPMI containing HEPES and L-glutamine, 10% FBS, Pen/Strep, G418 (final conc 500 μg/ml), and GM-CSF (final conc 5 ng/ml). The cells were cultured for 7 days, with or without compound treatment as described in FIG. 91.\nFor the hemoglobinization assay, TF1 cells were washed three times with PBS to remove residual GM-CSF then plated at (100,000 cells/ml). Cells were then induced to differentiate using EPO (2 unit/ml). Induction continued for 7 days with changing media on 4th day and adding media with fresh EPO. The cell pellets were collected and imaged for hemoglobinization content (as a surrogate for differentiation into blood lineage). Cells were pelleted, washed, stained with a panel of antibodies and analyzed by flow cytometry, using the following antibodies: […]"}, "[11]": {"tested_on": "BaF3 cells expressing hCRBN, hCRBN and JAK2 wt, or hCRBN and JAK2-V617F", "assay": "Combination studies with JAK2 inhibitors in engineered BaF3 cells, CellTitre-Glo after 3 days", "type": "cell-based", "conditions": "IL3 dependent BaF3 lines", "method": "(§1) Everolimus was included as a control. The cell viability was then measured by CellTitre-Glo® after 3 days."}, "[12]": {"tested_on": "IL3 independent JAK2 V617F BaF3 cells", "assay": "Combination studies with JAK2 inhibitors in engineered BaF3 cells, CellTitre-Glo after 3 days", "type": "cell-based", "conditions": "compared to the IL3 dependent lines", "method": "as §1"}, "BON cells": {"tested_on": "BON cells", "assay": "Signaling and proliferation of BON cells, CellTiter-Glo assay (2D and 3D plates)", "type": "cell-based", "conditions": "BON1, single agent"}, "physchem [13]": {"assay": "physchem", "type": "physicochemical", "conditions": "25 °C, aqueous with cosolvent or surfactant or cyclodextrin, thermodynamic from solid, Solubility at 25° C. (mg/mL)", "method": "Two studies were performed to evaluate the supersaturation risks of Kleptose based formulations. […] The second study is intended to evaluate the kinetics of drug precipitation in Formulation Ib.\nIn this experiment, ten solutions were prepared by dissolving Kleptose and formic acid in WFI. The Kleptose concentration in all the ten solutions varied from 30 mg/mL to 250 mg/mL, while the formic acid concentration was kept constant at 1.65 mg/mL as used in the bulk solution of formulation Ib. […] Then the sample of each solution was taken and centrifuged for assay testing."}}, "note": "Like-named read-outs stand apart in the source and are kept apart here."}
{"smiles": "O=C1CCC(N2Cc3cc(CNC(=O)C(F)(F)c4ccc(Cl)cc4)ccc3C2=O)C(=O)N1", "note": "(stereo not drawn) [Compound 1, 2-(4-chlorophenyl)-N-((2-(2,6-dioxopiperidin-3-yl)-1-oxoisoindolin-5-yl)methyl)-2,2-difluoroacetamide]", "values": [{"measurement": "solubility", "setting": "physchem [1]", "value": "~170000", "unit": "µg/mL"}, {"measurement": "tumor growth inhibition (mean tumor volume)", "setting": "[2]", "value": "showed tumor growth inhibition"}, {"measurement": "anti-tumor activity", "setting": "[2]; 1.25 mg/kg and 2.5 mg/kg", "value": "moderate anti-tumor activity"}, {"measurement": "anti-tumor activity", "setting": "[2]; 5 mg/kg", "value": "prominent anti-tumor activity"}, {"measurement": "GSPT1 degradation", "setting": "[3]", "value": "dose dependent GSPT1 degradation"}, {"measurement": "effect on mTORC1 effectors (p4EBP1, phosphorylation of S6)", "setting": "[3]", "value": "no direct effect"}, {"measurement": "Assay at t = 0", "setting": "[4]; Kleptose 30 mg/mL", "value": 0.114, "unit": "mg/mL"}, {"measurement": "Assay at t = 4 wks without Compound 1 crystal at 25° C.", "setting": "[4]; Kleptose 30 mg/mL", "value": 0.036, "unit": "mg/mL"}, {"measurement": "Assay at t = 9 days with Compound 1 crystal at 25° C.", "setting": "[4]; Kleptose 30 mg/mL", "value": 0.036, "unit": "mg/mL"}, {"measurement": "Assay at t = 0", "setting": "[4]; Kleptose 60 mg/mL", "value": 0.115, "unit": "mg/mL"}, {"measurement": "Assay at t = 4 wks without Compound 1 crystal at 25° C.", "setting": "[4]; Kleptose 60 mg/mL", "value": 0.114, "unit": "mg/mL"}, {"measurement": "Assay at t = 9 days with Compound 1 crystal at 25° C.", "setting": "[4]; Kleptose 60 mg/mL", "value": 0.065, "unit": "mg/mL"}, {"measurement": "Assay at t = 0", "setting": "[4]; Kleptose 70 mg/mL", "value": 0.115, "unit": "mg/mL"}, {"measurement": "Assay at t = 4 wks without Compound 1 crystal at 25° C.", "setting": "[4]; Kleptose 70 mg/mL", "value": 0.114, "unit": "mg/mL"}, {"measurement": "Assay at t = 9 days with Compound 1 crystal at 25° C.", "setting": "[4]; Kleptose 70 mg/mL", "value": 0.077, "unit": "mg/mL"}, {"measurement": "Assay at t = 0", "setting": "[4]; Kleptose 80 mg/mL", "value": 0.116, "unit": "mg/mL"}, {"measurement": "Assay at t = 4 wks without Compound 1 crystal at 25° C.", "setting": "[4]; Kleptose 80 mg/mL", "value": 0.114, "unit": "mg/mL"}, {"measurement": "Assay at t = 9 days with Compound 1 crystal at 25° C.", "setting": "[4]; Kleptose 80 mg/mL", "value": 0.103, "unit": "mg/mL"}, {"measurement": "Assay at t = 0", "setting": "[4]; Kleptose 90 mg/mL", "value": 0.116, "unit": "mg/mL"}, {"measurement": "Assay at t = 4 wks without Compound 1 crystal at 25° C.", "setting": "[4]; Kleptose 90 mg/mL", "value": 0.115, "unit": "mg/mL"}, {"measurement": "Assay at t = 9 days with Compound 1 crystal at 25° C.", "setting": "[4]; Kleptose 90 mg/mL", "value": 0.114, "unit": "mg/mL"}, {"measurement": "Assay at t = 0", "setting": "[4]; Kleptose 100 mg/mL", "value": 0.117, "unit": "mg/mL"}, {"measurement": "Assay at t = 4 wks without Compound 1 crystal at 25° C.", "setting": "[4]; Kleptose 100 mg/mL", "value": 0.115, "unit": "mg/mL"}, {"measurement": "Assay at t = 9 days with Compound 1 crystal at 25° C.", "setting": "[4]; Kleptose 100 mg/mL", "value": 0.117, "unit": "mg/mL"}, {"measurement": "IC50", "setting": "[5]; read-out: Absolute IC50, GA0087-1st experiment", "value": 20.3, "unit": "nM"}, {"measurement": "IC50", "setting": "[5]; read-out: Absolute IC50, GA0087-2nd experiment", "value": 16.4, "unit": "nM"}, {"measurement": "IC50", "setting": "[5]; read-out: Relative IC50, GA0087-1st experiment", "value": 16.3, "unit": "nM"}, {"measurement": "IC50", "setting": "[5]; read-out: Relative IC50, GA0087-2nd experiment", "value": 15.2, "unit": "nM"}, {"measurement": "Maximal Inhibition", "setting": "[6]; GA0087-1st experiment", "value": 90.71, "unit": "%"}, {"measurement": "Maximal Inhibition", "setting": "[6]; GA0087-2nd experiment", "value": 92.41, "unit": "%"}, {"measurement": "activity in the GA0087 model", "setting": "[6]; ex vivo 3D assay, 7 days, single agent", "value": "shows activity"}, {"measurement": "Caspase 3 activation", "setting": "[7]", "value": "activated"}, {"measurement": "GSPT1 degradation", "setting": "[7]", "value": "degraded"}, {"measurement": "solubility at 2 days", "setting": "physchem [8]", "value": 135, "unit": "µg/mL"}, {"measurement": "solubility at 9 days", "setting": "physchem [8]", "value": 115, "unit": "µg/mL"}, {"measurement": "solubility at 34 days", "setting": "physchem [8]", "value": 98, "unit": "µg/mL"}, {"measurement": "GSPT1 degradation, Caspase-3 cleavage and Mcl-1 loss", "setting": "[9]", "value": "sufficient to induce robust GSPT1 degradation, Caspase-3 cleavage, and Mcl-1 loss"}, {"measurement": "proliferation (total, HSC and progenitor cell count)", "setting": "[10]", "value": "inhibition of proliferation"}, {"measurement": "difference in single agent effect on cell viability between cell lines", "setting": "[11]", "value": "no difference"}, {"measurement": "single agent sensitivity", "setting": "[12]", "value": "more sensitive"}, {"measurement": "standalone activity on proliferation", "setting": "BON cells", "value": "no standalone activity"}, {"measurement": "solubility at 72 h", "setting": "physchem [13]", "value": 86, "unit": "µg/mL"}]}
